Experiments:
Assay in all cases: Large panel kinase profiling
Type in all cases: biochemical
Details in all cases: 1 μM test article, 1 mM ATP
[1] = biological target: RET (Homo sapiens, UniProt P07949)
Outline: (§1)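 One compound concentration (1 μM) was screened against each kinase at 1 mM ATP using PhosphoSens CSox-Sensor detection, at 30° C., with fluorescence read every 1 min (Ex 360 nm/Em 485 nm).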

[2] = biological target: MAP3K10 (Homo sapiens, UniProt Q02779)
Outline: as §1

[3] = biological target: EPHA2 (Homo sapiens, UniProt P29317)
EPHA2, sequence (P29317 24-976, species assumed): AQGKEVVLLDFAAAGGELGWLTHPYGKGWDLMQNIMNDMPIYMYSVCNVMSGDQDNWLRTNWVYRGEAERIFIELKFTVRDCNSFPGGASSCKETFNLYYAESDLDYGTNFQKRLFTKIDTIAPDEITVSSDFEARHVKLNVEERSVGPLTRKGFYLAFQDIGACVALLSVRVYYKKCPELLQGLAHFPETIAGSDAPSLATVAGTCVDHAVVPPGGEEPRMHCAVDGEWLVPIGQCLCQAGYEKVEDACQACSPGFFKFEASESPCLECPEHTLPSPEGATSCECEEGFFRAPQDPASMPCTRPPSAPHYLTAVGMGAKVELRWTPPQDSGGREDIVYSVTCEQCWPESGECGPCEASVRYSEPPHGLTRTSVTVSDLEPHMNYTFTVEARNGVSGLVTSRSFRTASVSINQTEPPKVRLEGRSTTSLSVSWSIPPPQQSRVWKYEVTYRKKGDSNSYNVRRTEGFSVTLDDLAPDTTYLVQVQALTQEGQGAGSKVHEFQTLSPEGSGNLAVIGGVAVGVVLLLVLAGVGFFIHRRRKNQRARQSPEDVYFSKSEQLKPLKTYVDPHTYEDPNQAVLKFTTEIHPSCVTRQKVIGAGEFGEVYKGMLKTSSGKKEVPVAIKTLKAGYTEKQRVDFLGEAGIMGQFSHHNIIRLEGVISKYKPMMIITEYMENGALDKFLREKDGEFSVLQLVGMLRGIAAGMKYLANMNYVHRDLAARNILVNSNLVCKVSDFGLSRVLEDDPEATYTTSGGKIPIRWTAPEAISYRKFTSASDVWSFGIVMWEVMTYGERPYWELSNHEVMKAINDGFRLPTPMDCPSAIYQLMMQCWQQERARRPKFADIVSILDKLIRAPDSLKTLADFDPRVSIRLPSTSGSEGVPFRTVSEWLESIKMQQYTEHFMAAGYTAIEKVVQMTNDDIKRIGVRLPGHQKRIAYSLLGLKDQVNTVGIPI
Outline: as §1

[4] = biological target: T1, RPS6KA5/MSK1 (Homo sapiens, UniProt O75582)
T1 construct: AssayQuant Technologies, Inc. (contract assay)
T1 sequence (O75582 whole entry): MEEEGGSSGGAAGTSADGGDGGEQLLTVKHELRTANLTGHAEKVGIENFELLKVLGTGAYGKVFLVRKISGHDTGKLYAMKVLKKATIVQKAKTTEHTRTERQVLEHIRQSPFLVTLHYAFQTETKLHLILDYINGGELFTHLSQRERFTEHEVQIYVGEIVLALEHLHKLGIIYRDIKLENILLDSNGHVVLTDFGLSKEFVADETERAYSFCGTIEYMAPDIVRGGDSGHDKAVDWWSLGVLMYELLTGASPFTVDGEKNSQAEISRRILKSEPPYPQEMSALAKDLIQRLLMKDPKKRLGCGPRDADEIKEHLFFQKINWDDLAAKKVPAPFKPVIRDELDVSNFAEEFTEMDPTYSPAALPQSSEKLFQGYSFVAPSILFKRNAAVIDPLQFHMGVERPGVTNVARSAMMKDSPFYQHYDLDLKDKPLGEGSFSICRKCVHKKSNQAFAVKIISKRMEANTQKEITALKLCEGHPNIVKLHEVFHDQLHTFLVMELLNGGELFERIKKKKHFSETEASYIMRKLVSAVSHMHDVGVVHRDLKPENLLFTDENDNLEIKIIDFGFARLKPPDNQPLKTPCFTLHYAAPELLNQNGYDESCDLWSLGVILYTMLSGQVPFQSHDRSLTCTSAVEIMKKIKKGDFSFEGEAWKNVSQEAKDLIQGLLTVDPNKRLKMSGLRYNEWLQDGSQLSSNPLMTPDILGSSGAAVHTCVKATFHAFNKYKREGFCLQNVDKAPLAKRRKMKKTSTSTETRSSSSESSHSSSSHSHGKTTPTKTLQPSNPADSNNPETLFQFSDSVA
Outline: as §1

[5] = biological target: PRKAA2/AMPK211 (Homo sapiens, UniProt P54646)
Outline: as §1

[6] = biological target: T2, MARK4 (Homo sapiens, UniProt Q96L34)
T2 construct: AssayQuant Technologies, Inc. (assay service)
T2 sequence (Q96L34 1-752): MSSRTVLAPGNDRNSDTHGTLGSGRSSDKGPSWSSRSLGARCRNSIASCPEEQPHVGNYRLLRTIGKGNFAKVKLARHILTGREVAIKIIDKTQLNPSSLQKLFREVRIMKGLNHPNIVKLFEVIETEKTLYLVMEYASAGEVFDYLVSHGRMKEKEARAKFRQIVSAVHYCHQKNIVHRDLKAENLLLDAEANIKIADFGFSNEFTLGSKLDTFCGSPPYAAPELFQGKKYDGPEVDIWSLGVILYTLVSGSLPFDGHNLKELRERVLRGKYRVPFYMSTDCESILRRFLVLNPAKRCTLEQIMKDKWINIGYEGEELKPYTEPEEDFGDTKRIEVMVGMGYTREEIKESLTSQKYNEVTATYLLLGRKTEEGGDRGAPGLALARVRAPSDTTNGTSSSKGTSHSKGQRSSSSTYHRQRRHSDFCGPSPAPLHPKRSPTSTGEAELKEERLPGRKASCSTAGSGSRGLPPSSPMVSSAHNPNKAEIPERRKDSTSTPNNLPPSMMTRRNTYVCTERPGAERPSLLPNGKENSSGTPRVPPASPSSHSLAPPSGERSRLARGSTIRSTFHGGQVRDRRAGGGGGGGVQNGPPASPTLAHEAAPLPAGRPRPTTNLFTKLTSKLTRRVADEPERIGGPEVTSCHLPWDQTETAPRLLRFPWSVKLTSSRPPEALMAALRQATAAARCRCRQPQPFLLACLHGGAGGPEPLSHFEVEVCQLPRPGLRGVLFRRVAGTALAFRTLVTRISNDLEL
Outline: as §1

[7] = biological target: T3, MYO3B (Homo sapiens, UniProt Q8WXR4)
T3 construct: AssayQuant Technologies, Inc. (assay service)
T3 sequence (Q8WXR4 1-1341): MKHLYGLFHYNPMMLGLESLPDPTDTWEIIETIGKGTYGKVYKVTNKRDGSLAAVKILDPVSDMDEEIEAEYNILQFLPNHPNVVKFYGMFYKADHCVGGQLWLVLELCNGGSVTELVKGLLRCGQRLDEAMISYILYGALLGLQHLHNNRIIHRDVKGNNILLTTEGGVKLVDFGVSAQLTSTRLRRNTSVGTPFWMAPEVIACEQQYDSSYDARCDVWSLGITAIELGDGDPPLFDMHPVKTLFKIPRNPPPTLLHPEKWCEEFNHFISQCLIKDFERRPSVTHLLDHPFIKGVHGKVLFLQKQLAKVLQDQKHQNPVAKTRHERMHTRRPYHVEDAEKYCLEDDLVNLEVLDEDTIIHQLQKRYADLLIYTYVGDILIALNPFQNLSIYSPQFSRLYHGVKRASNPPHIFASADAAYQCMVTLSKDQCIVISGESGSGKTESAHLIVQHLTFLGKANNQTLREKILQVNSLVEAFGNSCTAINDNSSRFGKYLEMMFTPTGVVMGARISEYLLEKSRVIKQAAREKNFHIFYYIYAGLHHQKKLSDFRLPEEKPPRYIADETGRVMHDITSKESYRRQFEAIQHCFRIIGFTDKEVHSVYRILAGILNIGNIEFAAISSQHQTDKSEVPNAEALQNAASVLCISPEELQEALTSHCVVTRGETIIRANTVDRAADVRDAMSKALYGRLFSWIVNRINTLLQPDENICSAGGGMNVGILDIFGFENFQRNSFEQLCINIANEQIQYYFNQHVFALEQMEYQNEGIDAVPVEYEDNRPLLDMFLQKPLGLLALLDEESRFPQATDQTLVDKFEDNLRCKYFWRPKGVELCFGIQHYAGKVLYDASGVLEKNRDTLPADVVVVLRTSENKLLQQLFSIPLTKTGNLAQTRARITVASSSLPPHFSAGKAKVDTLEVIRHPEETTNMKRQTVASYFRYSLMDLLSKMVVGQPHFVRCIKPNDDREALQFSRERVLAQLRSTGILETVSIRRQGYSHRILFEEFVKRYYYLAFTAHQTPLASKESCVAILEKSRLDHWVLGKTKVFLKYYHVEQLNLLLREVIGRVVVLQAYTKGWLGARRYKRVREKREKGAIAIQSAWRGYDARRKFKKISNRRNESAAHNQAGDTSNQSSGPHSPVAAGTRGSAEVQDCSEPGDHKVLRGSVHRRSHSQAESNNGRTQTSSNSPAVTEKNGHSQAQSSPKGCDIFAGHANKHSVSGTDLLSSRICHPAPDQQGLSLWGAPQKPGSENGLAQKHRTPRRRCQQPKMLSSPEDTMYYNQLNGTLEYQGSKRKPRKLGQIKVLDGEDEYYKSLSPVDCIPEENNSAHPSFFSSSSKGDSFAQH
Outline: as §1

[8] = biological target: FGR (Homo sapiens, UniProt P09769)
FGR, sequence (P09769 whole entry, species assumed): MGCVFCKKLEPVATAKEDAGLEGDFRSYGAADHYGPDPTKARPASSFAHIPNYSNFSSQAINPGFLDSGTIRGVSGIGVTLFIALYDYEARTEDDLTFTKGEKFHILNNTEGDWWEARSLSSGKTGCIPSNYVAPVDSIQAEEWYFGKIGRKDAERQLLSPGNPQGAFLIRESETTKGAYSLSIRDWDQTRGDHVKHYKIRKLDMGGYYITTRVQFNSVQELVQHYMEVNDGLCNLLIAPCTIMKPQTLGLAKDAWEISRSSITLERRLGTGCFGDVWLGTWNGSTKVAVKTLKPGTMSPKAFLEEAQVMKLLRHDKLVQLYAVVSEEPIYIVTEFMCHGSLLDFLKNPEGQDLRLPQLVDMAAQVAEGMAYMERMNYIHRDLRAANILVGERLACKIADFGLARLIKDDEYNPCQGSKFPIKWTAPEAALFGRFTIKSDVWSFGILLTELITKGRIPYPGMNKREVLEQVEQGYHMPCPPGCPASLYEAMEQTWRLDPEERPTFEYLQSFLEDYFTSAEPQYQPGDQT
Outline: as §1

[9] = biological target: KIT (Homo sapiens, UniProt P10721)
KIT, sequence (P10721 26-976, species assumed): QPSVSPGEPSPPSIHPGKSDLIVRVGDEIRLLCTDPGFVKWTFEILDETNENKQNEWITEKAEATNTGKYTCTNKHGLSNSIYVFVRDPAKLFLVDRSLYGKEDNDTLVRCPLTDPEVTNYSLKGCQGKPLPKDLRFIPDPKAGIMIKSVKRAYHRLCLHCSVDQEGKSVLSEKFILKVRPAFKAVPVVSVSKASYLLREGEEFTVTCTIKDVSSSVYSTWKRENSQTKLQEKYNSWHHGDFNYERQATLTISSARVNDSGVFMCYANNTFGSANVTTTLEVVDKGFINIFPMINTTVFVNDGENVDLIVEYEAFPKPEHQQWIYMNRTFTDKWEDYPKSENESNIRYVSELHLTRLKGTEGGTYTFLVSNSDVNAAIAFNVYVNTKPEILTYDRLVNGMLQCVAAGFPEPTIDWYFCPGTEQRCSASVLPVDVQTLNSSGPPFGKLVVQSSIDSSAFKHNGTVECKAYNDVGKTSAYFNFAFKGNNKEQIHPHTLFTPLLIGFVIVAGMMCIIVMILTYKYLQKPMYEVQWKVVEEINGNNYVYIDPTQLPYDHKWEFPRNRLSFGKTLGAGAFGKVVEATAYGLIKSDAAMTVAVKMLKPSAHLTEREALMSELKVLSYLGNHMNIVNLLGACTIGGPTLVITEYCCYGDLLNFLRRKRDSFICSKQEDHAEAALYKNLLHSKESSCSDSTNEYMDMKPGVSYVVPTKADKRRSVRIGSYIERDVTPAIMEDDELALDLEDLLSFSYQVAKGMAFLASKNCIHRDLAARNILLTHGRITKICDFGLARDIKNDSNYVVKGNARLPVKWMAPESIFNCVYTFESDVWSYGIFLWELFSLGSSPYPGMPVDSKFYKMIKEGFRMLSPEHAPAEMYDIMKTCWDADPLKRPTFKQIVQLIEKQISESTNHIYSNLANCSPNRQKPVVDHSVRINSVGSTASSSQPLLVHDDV
Outline: as §1

MAP3K10, sequence (Q02779 whole entry, species assumed): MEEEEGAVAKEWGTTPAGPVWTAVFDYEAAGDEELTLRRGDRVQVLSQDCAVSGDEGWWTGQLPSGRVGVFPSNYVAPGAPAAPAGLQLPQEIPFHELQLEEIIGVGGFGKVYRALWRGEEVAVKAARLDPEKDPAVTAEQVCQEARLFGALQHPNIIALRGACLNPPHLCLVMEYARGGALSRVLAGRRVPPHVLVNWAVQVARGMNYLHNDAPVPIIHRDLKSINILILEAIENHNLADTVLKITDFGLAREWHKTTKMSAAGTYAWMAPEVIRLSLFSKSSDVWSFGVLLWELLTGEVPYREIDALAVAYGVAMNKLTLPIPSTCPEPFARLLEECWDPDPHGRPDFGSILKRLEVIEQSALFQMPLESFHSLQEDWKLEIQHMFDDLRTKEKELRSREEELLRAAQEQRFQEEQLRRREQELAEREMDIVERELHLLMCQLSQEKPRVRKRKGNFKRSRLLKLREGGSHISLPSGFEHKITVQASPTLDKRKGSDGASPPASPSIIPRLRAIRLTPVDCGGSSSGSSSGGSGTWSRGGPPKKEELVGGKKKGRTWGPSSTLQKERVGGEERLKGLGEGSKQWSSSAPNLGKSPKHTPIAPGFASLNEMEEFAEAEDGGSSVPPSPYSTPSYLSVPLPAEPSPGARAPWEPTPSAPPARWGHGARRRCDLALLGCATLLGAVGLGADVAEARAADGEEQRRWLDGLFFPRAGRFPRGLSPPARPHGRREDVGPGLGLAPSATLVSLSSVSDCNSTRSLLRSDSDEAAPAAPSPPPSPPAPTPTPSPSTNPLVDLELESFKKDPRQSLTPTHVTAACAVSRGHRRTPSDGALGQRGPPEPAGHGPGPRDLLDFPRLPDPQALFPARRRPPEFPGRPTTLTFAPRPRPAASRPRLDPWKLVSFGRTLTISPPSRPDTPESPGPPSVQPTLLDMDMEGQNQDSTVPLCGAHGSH

Work on `C=CC(=O)N1CCCC(c2c(F)cc(C(N)=O)c3[nH]c4c(c23)CCCCC4)C1` (single isomer, unassigned) [Compound 5-6] yielded an inhibition at 1 µM [1] of -24%, an inhibition at 1 µM [2] of -8.6% and an inhibition at 1 µM [3] of -1.9%. The inhibition at 1 µM [4] was -20.7%, the inhibition at 1 µM [5] was -24.4% and the inhibition at 1 µM [6] was 8.1%. The inhibition at 1 µM [7] was -36.2%, the inhibition at 1 µM [8] was 17.1% and the inhibition at 1 µM [9] was 5.5%.

Molecule `C=CC(=O)N1CCC[C@@H](c2c(F)cc(C(N)=O)c3[nH]c4c(c23)CC2(CC4)CC2)C1` [Compound 6-2, (S)-5-(1-acryloylpiperidin-3-yl)-6-fluoro-1,2,4,9-tetrahydrospiro[carbazole-3,1′-cyclopropane]-8-carboxamide] has an inhibition at 1 µM [1] of 23%, an inhibition at 1 µM [2] of 18.9% and an inhibition at 1 µM [3] of 9.5%. For the same molecule, the inhibition at 1 µM [4] was -4.2%, the inhibition at 1 µM [5] was 28.8% and the inhibition at 1 µM [6] was -10.2%. The inhibition at 1 µM [7] was -16.5%, the inhibition at 1 µM [8] was -25.9% and the inhibition at 1 µM [9] was 26.9%.

For `C=CC(=O)N1CCC[C@@H](c2c(F)cc(C(N)=O)c3[nH]c4c(c23)CCC4)C1` [Compound 10-2, (S)-8-(1-acryloylpiperidin-3-yl)-7-fluoro-1,2,3,4-tetrahydrocyclo-penta[b]indole-5-carboxamide], the inhibition at 1 µM [1] was 6%, the inhibition at 1 µM [2] was -17.7% and the inhibition at 1 µM [3] was -9.6%. It also gave an inhibition at 1 µM [4] of -14.5%, an inhibition at 1 µM [5] of 36.6% and an inhibition at 1 µM [6] of 1.7%. The inhibition at 1 µM [7] was -11%, the inhibition at 1 µM [8] was 3.6% and the inhibition at 1 µM [9] was 20.8%.
